# Columns and labels:
# [1] = tested on: wheat; test: Test C preemergence; type: in vivo, Triticum aestivum; conditions: for Plant response rating, Wheat: Preemergence; for Wheat plant response rating: preemergence
# From the text: (§1) Seeds of plant species selected from barnyardgrass (Echinochloa crusgalli), blackgrass (Alopecurus myosuroides), corn (Zea mays), foxtail, giant (giant foxtail, Setaria faberi), green foxtail (Setaria viridis), goosegrass (Eleusine indica), kochia (Bassia scoparia), oat, wild (wild oat, Avena fatua), pigweed, palmer (palmer amaranth, palmer pigweed, Amaranthus palmeri), Pigweed, Redroot (redroot pigweed, Amaranthus retroflexus), ragweed (common ragweed, Ambrosia artemisiifolia), ryegrass, Italian ([…] ryegrass, Lolium multiflorum), soybean (Glycine max), and wheat (Triticum aestivum) were planted into a blend of loam soil and sand and treated preemergence with a directed soil spray using test chemicals formulated in a non-phytotoxic solvent mixture which included a surfactant. At the same time, plants selected from these crops and weed species and also galium (catchweed bedstraw, Galium aparine) and horseweed (Erigeron canadensis) were planted in pots containing the same blend of loam soil and sand and treated with postemergence applications of test chemicals formulated in the same manner. Plants ranged in height from 2 to 10 cm and were in the one- to two-leaf stage for the postemergence treatment. Treated plants and untreated controls were maintained in a greenhouse for 10 days, after which time all treated plants were compared to untreated controls and visually evaluated for injury. Plant response ratings, summarized in Table C, are based on a 0 to 100 scale where 0 is no effect and 100 is complete control. A dash (-) response means no test result.
# [2] = tested on: pigweed, palmer; test: Test C preemergence; type: in vivo, Amaranthus palmeri; conditions: for Plant response rating, Pigweed, Palmer: Preemergence; for Pigweed, Palmer plant response rating: preemergence
# Procedure, shortened: (§2)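 Seeds sown in loam soil–sand blend received a directed preemergence soil spray of test chemical in non-phytotoxic solvent with surfactant; postemergence plants (2–10 cm, one- to two-leaf stage) were sprayed with the same formulation. Greenhouse-held 10 days, then visually rated for injury versus untreated controls, 0 (no effect) to 100 (complete control).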
# [3] = tested on: soybean; test: Test C preemergence; type: in vivo, Glycine max; conditions: for Plant response rating, Soybean: Preemergence; for Soybean plant response rating: preemergence
# From the text: as §1
# [4] = tested on: galium; test: Test C postemergence; type: in vivo, Galium aparine; conditions: 10 days
# Procedure, shortened: as §2
# [5] = tested on: ryegrass, Italian; test: Test C postemergence; type: in vivo, Lolium multiflorum; conditions: 10 days
# Procedure, shortened: as §2
# [6] = tested on: ryegrass, Italian; test: Test C preemergence; type: in vivo, Lolium multiflorum; conditions: for Plant response rating, Ryegrass, Italian: Preemergence; for Ryegrass, Italian plant response rating: preemergence
# Procedure, shortened: as §2
# [7] = tested on: corn; test: Test C preemergence; type: in vivo, Zea mays; conditions: for Plant response rating, Corn: Preemergence; for Corn plant response rating: preemergence
# From the text: as §1
# [8] = tested on: corn; test: Test C postemergence; type: in vivo, Zea mays; conditions: 10 days
# From the text: as §1
# [9] = tested on: horseweed; test: Test C postemergence; type: in vivo, Erigeron canadensis; conditions: 10 days
# Procedure, shortened: as §2
# [10] = tested on: barnyardgrass; test: Test C postemergence; type: in vivo, Echinochloa crusgalli; conditions: 10 days
# Procedure, shortened: as §2
# [11] = tested on: ragweed; test: Test C postemergence; type: in vivo, Ambrosia artemisiifolia; conditions: 10 days
# Procedure, shortened: as §2
# [12] = tested on: kochia; test: Test C preemergence; type: in vivo, Bassia scoparia; conditions: for Plant response rating, Kochia: Preemergence; for Kochia plant response rating: preemergence
# Procedure, shortened: as §2
# [13] = tested on: ragweed; test: Test C preemergence; type: in vivo, Ambrosia artemisiifolia; conditions: for Plant response rating, Ragweed: Preemergence; for Ragweed plant response rating: preemergence
# Procedure, shortened: as §2
# [14] = tested on: wheat; test: Test C postemergence; type: in vivo, Triticum aestivum; conditions: 10 days
# From the text: as §1
# [15] = tested on: kochia; test: Test C postemergence; type: in vivo, Bassia scoparia; conditions: 10 days
# Procedure, shortened: as §2
# [16] = tested on: green foxtail; test: Test C preemergence; type: in vivo, Setaria viridis; conditions: for Plant response rating, Foxtail, Green: Preemergence; for Foxtail, Green plant response rating: preemergence
# Procedure, shortened: as §2
# [17] = tested on: blackgrass; test: Test C preemergence; type: in vivo, Alopecurus myosuroides; conditions: for Plant response rating, Blackgrass: Preemergence; for Blackgrass plant response rating: preemergence
# Procedure, shortened: as §2
# [18] = tested on: oat, wild; test: Test C postemergence; type: in vivo, Avena fatua; conditions: 10 days
# From the text: as §1
# [19] = tested on: pigweed, palmer; test: Test C postemergence; type: in vivo, Amaranthus palmeri; conditions: 10 days
# Procedure, shortened: as §2
# [20] = tested on: soybean; test: Test C postemergence; type: in vivo, Glycine max; conditions: 10 days
# From the text: as §1
# [21] = tested on: barnyardgrass; test: Test C preemergence; type: in vivo, Echinochloa crusgalli; conditions: for Barnyardgrass plant response rating: preemergence; for Plant response rating, Barnyardgrass: Preemergence
# Procedure, shortened: as §2
# [22] = tested on: green foxtail; test: Test C postemergence; type: in vivo, Setaria viridis; conditions: 10 days
# Procedure, shortened: as §2
# [23] = tested on: blackgrass; test: Test C postemergence; type: in vivo, Alopecurus myosuroides; conditions: 10 days
# Procedure, shortened: as §2
# [24] = tested on: oat, wild; test: Test C preemergence; type: in vivo, Avena fatua; conditions: for Oat, Wild plant response rating: preemergence, 0 to 100 scale (0 no effect, 100 complete control)
# From the text: as §1
# [25] = 500 g ai/ha, visual rating after 10 days, 0 to 100 scale (0 no effect, 100 complete control)
# [26] = Test C, 125 g ai/ha, 0 to 100 scale (0 no effect, 100 complete control)
# [27] = 125 g ai/ha, postemergence, 0 to 100 scale, 0 no effect, 100 complete control
# [28] = Postemergence, 500 g ai/ha, visual 0 to 100 scale (0 no effect, 100 complete control)
# [29] = 500 g ai/ha, 0 to 100 scale (0 no effect, 100 complete control)
# [30] = Postemergence, 125 g ai/ha, 0 to 100 scale (0 no effect, 100 complete control)
# [31] = 31 g ai/ha, 0 to 100 scale, 0 no effect, 100 complete control
# [32] = Postemergence, 31 g ai/ha, 0 to 100 scale, 0 no effect, 100 complete control
smiles,measurement,setting,value
CCc1ncn(-c2cc(OC)cc(C(=O)N3C[C@H](C)Oc4c(Cl)cccc43)c2)n1 [Compound 164],"Plant response rating, Wheat",[1]; [25],60
same,Wheat plant response rating,[1]; [26],20
same,"Plant response rating, Pigweed, Palmer",[2]; [25],100
same,"Pigweed, Palmer plant response rating",[2]; [26],100
same,"Plant response rating, Soybean",[3]; [25],100
same,Soybean plant response rating,[3]; [26],90
same,"Plant response rating, Galium",[4]; [27],100
same,"Plant response rating, Galium",[4]; [28],100
same,"Plant response rating, Ryegrass, Italian",[5]; [27],50
same,"Plant response rating, Ryegrass, Italian",[5]; [28],90
same,"Plant response rating, Ryegrass, Italian",[6]; [25],100
same,"Ryegrass, Italian plant response rating",[6]; [26],90
same,"Plant response rating, Corn",[7]; [25],30
same,Corn plant response rating,[7]; [26],30
same,"Plant response rating, Corn",[8]; [27],30
same,"Plant response rating, Corn",[8]; [28],90
same,"Plant response rating, Horseweed",[9]; [27],20
same,"Plant response rating, Horseweed",[9]; [28],50
same,"Plant response rating, Barnyardgrass",[10]; [27],40
same,"Plant response rating, Barnyardgrass",[10]; [28],50
same,"Plant response rating, Ragweed",[11]; [27],50
same,"Plant response rating, Ragweed",[11]; [28],90
same,"Plant response rating, Kochia",[12]; [25],100
same,Kochia plant response rating,[12]; [26],40
same,"Plant response rating, Ragweed",[13]; [25],60
same,Ragweed plant response rating,[13]; [26],70
same,"Plant response rating, Wheat",[14]; [27],30
same,"Plant response rating, Wheat",[14]; [28],30
same,"Plant response rating, Kochia",[15]; [27],80
same,"Plant response rating, Kochia",[15]; [28],90
same,"Plant response rating, Foxtail, Green",[16]; [25],100
same,"Foxtail, Green plant response rating",[16]; [26],100
same,"Plant response rating, Blackgrass",[17]; [25],80
same,Blackgrass plant response rating,[17]; [26],50
same,"Plant response rating, Oat, Wild",[18]; [27],30
same,"Plant response rating, Oat, Wild",[18]; [28],50
same,"Plant response rating, Pigweed, Palmer",[19]; [27],90
same,"Plant response rating, Pigweed, Palmer",[19]; [28],100
same,"Plant response rating, Soybean",[20]; [27],100
same,"Plant response rating, Soybean",[20]; [28],100
same,Barnyardgrass plant response rating,"[21]; 125 g ai/ha, 0 to 100 scale (0 no effect, 100 complete control)",50
same,"Plant response rating, Barnyardgrass",[21]; [25],100
same,"Plant response rating, Foxtail, Green",[22]; [27],50
same,"Plant response rating, Foxtail, Green",[22]; [28],80
same,"Plant response rating, Blackgrass",[23]; [27],70
same,"Plant response rating, Blackgrass",[23]; [28],90
CCOC[C@H]1CN(C(=O)c2cc(-n3cnc(C(C)C)n3)cc3c2OCO3)c2cccc(Cl)c2O1 [40 0],Wheat plant response rating,[1]; [29],40
same,"Pigweed, Palmer plant response rating",[2]; [29],100
same,Soybean plant response rating,[3]; [29],100
same,"Plant response rating, Ryegrass, Italian",[5]; [30],0
same,"Ryegrass, Italian plant response rating",[6]; [29],90
same,Corn plant response rating,[7]; [29],0
same,"Plant response rating, Corn",[8]; [30],30
same,"Plant response rating, Horseweed",[9]; [30],40
same,"Plant response rating, Barnyardgrass",[10]; [30],30
same,"Plant response rating, Ragweed",[11]; [30],60
same,Kochia plant response rating,[12]; [29],90
same,Ragweed plant response rating,[13]; [29],70
same,"Plant response rating, Wheat",[14]; [30],20
same,"Plant response rating, Kochia",[15]; [30],70
same,"Foxtail, Green plant response rating",[16]; [29],100
same,Blackgrass plant response rating,[17]; [29],50
same,"Plant response rating, Oat, Wild",[18]; [30],0
same,"Plant response rating, Pigweed, Palmer",[19]; [30],100
same,"Oat, Wild plant response rating",[24]; 500 g ai/ha,30
same,"Plant response rating, Soybean",[20]; [30],20
same,Barnyardgrass plant response rating,[21]; [29],100
same,"Plant response rating, Foxtail, Green",[22]; [30],20
same,"Plant response rating, Blackgrass",[23]; [30],40
Cc1ccc(-n2cnc(C3(O)CCCC3)n2)cc1C(=O)N1C[C@H](C)Oc2c(Cl)cccc21 [Compound 193],"Plant response rating, Wheat",[1]; [31],0
same,Wheat plant response rating,[1]; [26],0
same,"Plant response rating, Pigweed, Palmer",[2]; [31],60
same,"Pigweed, Palmer plant response rating",[2]; [26],90
same,"Plant response rating, Soybean",[3]; [31],0
same,Soybean plant response rating,[3]; [26],90
same,"Plant response rating, Galium",[4]; [27],100
same,"Plant response rating, Galium",[4]; [32],60
same,"Plant response rating, Ryegrass, Italian",[5]; [27],50
same,"Plant response rating, Ryegrass, Italian",[5]; [32],20
same,"Plant response rating, Ryegrass, Italian",[6]; [31],60
same,"Ryegrass, Italian plant response rating",[6]; [26],80
same,"Plant response rating, Corn",[7]; [31],0
same,Corn plant response rating,[7]; [26],0
same,"Plant response rating, Corn",[8]; [27],0
same,"Plant response rating, Corn",[8]; [32],0
same,"Plant response rating, Horseweed",[9]; [27],0
same,"Plant response rating, Horseweed",[9]; [32],0
same,"Plant response rating, Barnyardgrass",[10]; [27],40
same,"Plant response rating, Barnyardgrass",[10]; [32],10
same,"Plant response rating, Ragweed",[11]; [27],60
same,"Plant response rating, Ragweed",[11]; [32],50
same,"Plant response rating, Kochia",[12]; [31],60
same,Kochia plant response rating,[12]; [26],100
same,"Plant response rating, Ragweed",[13]; [31],0
same,Ragweed plant response rating,[13]; [26],60
same,"Plant response rating, Wheat",[14]; [27],10
same,"Plant response rating, Wheat",[14]; [32],10
same,"Plant response rating, Kochia",[15]; [27],80
same,"Plant response rating, Kochia",[15]; [32],20
same,"Plant response rating, Foxtail, Green",[16]; [31],0
same,"Foxtail, Green plant response rating",[16]; [26],0
same,"Plant response rating, Blackgrass",[17]; [31],0
same,Blackgrass plant response rating,[17]; [26],0
same,"Plant response rating, Oat, Wild",[18]; [27],0
same,"Plant response rating, Oat, Wild",[18]; [32],0
same,"Plant response rating, Pigweed, Palmer",[19]; [27],70
same,"Plant response rating, Pigweed, Palmer",[19]; [32],20
same,"Plant response rating, Oat, Wild","[24]; Preemergence, 31 g ai/ha, 0 to 100 scale, 0 no effect, 100 complete control",0
same,"Oat, Wild plant response rating","[24]; Test C, 125 g ai/ha",20
same,"Plant response rating, Soybean",[20]; [27],100
same,"Plant response rating, Soybean",[20]; [32],100
same,"Plant response rating, Barnyardgrass",[21]; [31],10
same,Barnyardgrass plant response rating,[21]; [26],80
same,"Plant response rating, Foxtail, Green",[22]; [27],80
same,"Plant response rating, Foxtail, Green",[22]; [32],30
same,"Plant response rating, Blackgrass",[23]; [27],60
same,"Plant response rating, Blackgrass",[23]; [32],0

# Source: patent US20260262643A1, “HERBICIDAL BENZOXAZINES” (FMC CORPORATION, priority 2022, published 2026)
